Data from the supplement of paper PMC10307832.

Tests used:
Test in all cases: relative viability (nuclei count vs DMSO), 5 days (fraction); higher = more cells survive
TGX 221 + Bortezomib = compound: CC1=CN2C(=O)C=C(N=C2C(=C1)C(C)NC3=CC=CC=C3)N4CCOCC4 [TGX 221] + CC(C)C[C@H](NC(=O)[C@H](Cc1ccccc1)NC(=O)c1cnccn1)B(O)O [Bortezomib] (partner 0.002 µM)
How it was run: (§1)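 Medians of duplicate plates are given as relative viability. That measure is the nuclei count in treated wells divided by the count in vehicle wells. Counts were taken on 4× images of lung cancer cell lines in 1536-well plates, 5 days after pin-tool dosing the day after seeding with one drug alone or a fixed anchor-drug dose plus five library-drug doses (not always all listed) in √10 steps.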

Ricolinostat + Foretinib = compound: O=C(CCCCCCNC(=O)c1cnc(N(c2ccccc2)c2ccccc2)nc1)NO [Ricolinostat] + COc1cc2c(Oc3ccc(NC(=O)C4(C(=O)Nc5ccc(F)cc5)CC4)cc3F)ccnc2cc1OCCCN1CCOCC1 [Foretinib] (partner 0.25 µM)
How it was run: as §1

Ricolinostat + Lapatinib = compound: O=C(CCCCCCNC(=O)c1cnc(N(c2ccccc2)c2ccccc2)nc1)NO [Ricolinostat] + CS(=O)(=O)CCNCc1ccc(-c2ccc3ncnc(Nc4ccc(OCc5cccc(F)c5)c(Cl)c4)c3c2)o1 [Lapatinib] (partner 2 µM)
How it was run: as §1

[1] = compound: O=C(CCCCCCNC(=O)c1cnc(N(c2ccccc2)c2ccccc2)nc1)NO [Ricolinostat] + C[C@@H](Oc1cc(-c2cnn(C3CCNCC3)c2)cnc1N)c1c(Cl)ccc(F)c1Cl [Crizotinib] (partner 1 µM)
How it was run: as §1

RERF-LC-KJ
relative viability (TGX 221 + Bortezomib; first compound 0.08 µM): 0.908 | relative viability (TGX 221 + Bortezomib; first compound 0.253 µM): 1.06 | relative viability (TGX 221 + Bortezomib; first compound 0.8 µM): 1.27 | relative viability (TGX 221 + Bortezomib; first compound 2.53 µM): 0.961 | relative viability (TGX 221 + Bortezomib; first compound 8 µM): 1.01 | relative viability (Ricolinostat + Foretinib; first compound 0.08 µM): 0.842 | relative viability (Ricolinostat + Foretinib; first compound 0.253 µM): 0.795 | relative viability (Ricolinostat + Foretinib; first compound 0.8 µM): 0.88 | relative viability (Ricolinostat + Foretinib; first compound 2.53 µM): 0.802 | relative viability (Ricolinostat + Lapatinib; first compound 0.08 µM): 0.828 | relative viability (Ricolinostat + Lapatinib; first compound 0.253 µM): 0.864 | relative viability (Ricolinostat + Lapatinib; first compound 0.8 µM): 0.858 | relative viability (Ricolinostat + Lapatinib; first compound 2.53 µM): 0.808 | relative viability ([1]; first compound 0.08 µM): 0.784 | relative viability ([1]; first compound 0.253 µM): 0.754 | relative viability ([1]; first compound 0.8 µM): 0.819 | relative viability ([1]; first compound 2.53 µM): 0.65

SK-LU-1
relative viability (TGX 221 + Bortezomib; first compound 0.08 µM): 1.04 | relative viability (TGX 221 + Bortezomib; first compound 0.253 µM): 1.09 | relative viability (TGX 221 + Bortezomib; first compound 0.8 µM): 1.04 | relative viability (TGX 221 + Bortezomib; first compound 2.53 µM): 1.38 | relative viability (TGX 221 + Bortezomib; first compound 8 µM): 1.11 | relative viability (Ricolinostat + Foretinib; first compound 0.08 µM): 0.739 | relative viability (Ricolinostat + Foretinib; first compound 0.253 µM): 0.908 | relative viability (Ricolinostat + Foretinib; first compound 0.8 µM): 0.772 | relative viability (Ricolinostat + Foretinib; first compound 2.53 µM): 0.722 | relative viability (Ricolinostat + Lapatinib; first compound 0.08 µM): 0.75 | relative viability (Ricolinostat + Lapatinib; first compound 0.253 µM): 0.782 | relative viability (Ricolinostat + Lapatinib; first compound 0.8 µM): 0.854 | relative viability (Ricolinostat + Lapatinib; first compound 2.53 µM): 0.653 | relative viability ([1]; first compound 0.08 µM): 0.789 | relative viability ([1]; first compound 0.253 µM): 0.897 | relative viability ([1]; first compound 0.8 µM): 0.809 | relative viability ([1]; first compound 2.53 µM): 0.682

SW 1573
relative viability (TGX 221 + Bortezomib; first compound 0.08 µM): 0.91 | relative viability (TGX 221 + Bortezomib; first compound 0.253 µM): 1.09 | relative viability (TGX 221 + Bortezomib; first compound 0.8 µM): 1.04 | relative viability (TGX 221 + Bortezomib; first compound 2.53 µM): 0.945 | relative viability (TGX 221 + Bortezomib; first compound 8 µM): 0.839 | relative viability (Ricolinostat + Foretinib; first compound 0.08 µM): 0.863 | relative viability (Ricolinostat + Foretinib; first compound 0.253 µM): 1.12 | relative viability (Ricolinostat + Foretinib; first compound 0.8 µM): 0.899 | relative viability (Ricolinostat + Foretinib; first compound 2.53 µM): 0.918 | relative viability (Ricolinostat + Lapatinib; first compound 0.08 µM): 0.941 | relative viability (Ricolinostat + Lapatinib; first compound 0.253 µM): 1.23 | relative viability (Ricolinostat + Lapatinib; first compound 0.8 µM): 1.12 | relative viability (Ricolinostat + Lapatinib; first compound 2.53 µM): 1 | relative viability ([1]; first compound 0.08 µM): 0.761 | relative viability ([1]; first compound 0.253 µM): 0.851 | relative viability ([1]; first compound 0.8 µM): 0.784 | relative viability ([1]; first compound 2.53 µM): 0.733

UMC-11
relative viability (TGX 221 + Bortezomib; first compound 0.08 µM): 0.873 | relative viability (TGX 221 + Bortezomib; first compound 0.253 µM): 0.772 | relative viability (TGX 221 + Bortezomib; first compound 0.8 µM): 0.823 | relative viability (TGX 221 + Bortezomib; first compound 2.53 µM): 0.745 | relative viability (TGX 221 + Bortezomib; first compound 8 µM): 0.796 | relative viability (Ricolinostat + Foretinib; first compound 0.08 µM): 1.13 | relative viability (Ricolinostat + Foretinib; first compound 0.253 µM): 1.07 | relative viability (Ricolinostat + Foretinib; first compound 0.8 µM): 0.864 | relative viability (Ricolinostat + Foretinib; first compound 2.53 µM): 0.504 | relative viability (Ricolinostat + Lapatinib; first compound 0.08 µM): 0.699 | relative viability (Ricolinostat + Lapatinib; first compound 0.253 µM): 0.944 | relative viability (Ricolinostat + Lapatinib; first compound 0.8 µM): 0.906 | relative viability (Ricolinostat + Lapatinib; first compound 2.53 µM): 0.314 | relative viability ([1]; first compound 0.08 µM): 0.544 | relative viability ([1]; first compound 0.253 µM): 0.627 | relative viability ([1]; first compound 0.8 µM): 0.561 | relative viability ([1]; first compound 2.53 µM): 0.218
